In patent US11731964B2, “Benzamide antibacterial agents” (Purdue Research Foundation, priority 2018, dated 2023):
In brackets after ≈: the same amount, converted by molar mass.

Assays:
Type in all cases: cell-based
S. aureus [1] = assay: Screening of compounds for growth inhibition of S. aureus at 16 μg/mL (OD600); settings: compound at 16 μg/mL, 24 hours, compared to DMSO control
Method: Library compounds and analogs of F6 were dissolved in DMSO at 10 mg/mL. S. aureus was cultured in Mueller Hinton Broth to early exponential phase at which point culture aliquots were incubated with compounds at 16 μg/mL or DMSO in duplicates. The culture was continued at 37° C. for 24 hours. Aliquots (100 μL) of the cultures were dispensed into clear 96 well microtiter plates and OD600 was recorded. Percent normalized OD600 was obtained by using the equation [formula] wherein for a given compound, X is the OD600 of culture with the compound, Xo is that of media only and XT is the OD600 of the DMSO control.

E. faecalis ATCC 29212 = assay: MIC, broth microdilution; settings: Enterococcus faecalis, ATCC29212; E. faecalis ATCC 29212; read-out: MIC
Method: (§1) Bacteria were cultured in cation-adjusted Mueller Hinton Broth (for strains in Tables 1 and 4) or Brain Heart Infusion broth (for Enterococcus faecium) or Tryptic Soy Broth (all other bacteria) in a 96-well plate at 37° C. for at least 20 hours. The MIC was classified as the lowest concentration where no visual growth of bacteria was observed. The minimum bactericidal concentration (MBC) was tested by spotting 4 μL from wells with no growth onto Tryptic Soy Agar (TSA) plates. Plates were incubated at 37° C. for at least 18 hours before recording the MBC.

[2] = system: L. monocytogenes ATCC 19115; assay: MIC, broth microdilution; settings: Listeria monocytogenes, ATCC19115; L. monocytogenes ATCC 19115; read-out: MIC
Method: as §1

MRSA ATCC 33592 = assay: MIC, broth microdilution; settings: Staphylococcus aureus; MRSA ATCC 33592; read-out: MIC
Method: as §1

S. aureus ATCC 25923 = assay: MIC, broth microdilution; settings: Staphylococcus aureus, ATCC25923; S. aureus ATCC 25923; read-out: MIC
Method: as §1

[3] = system: VRE (E. faecalis) ATCC 51575; assay: MIC, broth microdilution; settings: VRE (E. faecalis) ATCC 51575; read-out: MIC
Method: as §1

E. faecalis = assay: MIC (Table 5, strain not given); settings: Enterococcus faecalis; E. faecalis (Table 5)
Method: as §1

S. aureus [4] = assay: MIC (Table 5, strain not given); settings: Staphylococcus aureus; S. aureus (Table 5)
Method: as §1

VRE = assay: MIC (Table 5, strain not given); settings: Enterococcus; VRE (Table 5)
Method: as §1

| Compound | inhibition of growth of S. aureus (S. aureus [1]) | MIC (MRSA ATCC 33592) [µg/mL] | MIC (S. aureus [4]) [µg/mL] | also measured |
| --- | --- | --- | --- | --- |
| CN(C)S(=O)(=O)c1ccc(C(=O)Nc2nnc(-c3ccc(F)cc3)o2)cc1 [Compound F3] | significantly inhibited the growth | 16 (≈ 41 µM) | – | MIC (E. faecalis ATCC 29212): 32 µg/mL (≈ 82 µM); MIC [2]: 32 µg/mL (≈ 82 µM); MIC (S. aureus ATCC 25923): 16 µg/mL (≈ 41 µM); MIC [3]: 32 µg/mL (≈ 82 µM) |
| O=C(Nc1nnc(-c2cccs2)s1)c1ccc(S(=O)(=O)N2CCCCC2)cc1 [Compound F4] | significantly inhibited the growth | 16 (≈ 36.8 µM) | – | MIC (E. faecalis ATCC 29212): 32 µg/mL (≈ 73.6 µM); MIC [2]: 16 µg/mL (≈ 36.8 µM); MIC (S. aureus ATCC 25923): 16 µg/mL (≈ 36.8 µM); MIC [3]: 32 µg/mL (≈ 73.6 µM) |
| CC1CC(C)CN(S(=O)(=O)c2ccc(C(=O)Nc3nnc(C4CCCO4)s3)cc2)C1 (stereo not shown) [Compound F6-2, 4-((3,5-Dimethylpiperidin-1-yl)sulfonyl)-N-(5-(tetrahydrofuran-2-yl)-1,3,4-thiadiazol-2-yl)benzamide] | inactive | – | – | – |
| CCOC(=O)c1nnc(NC(=O)c2ccc(S(=O)(=O)N3CC(C)CC(C)C3)cc2)o1 (stereo not shown) [Compound F6-3, Ethyl 5-(4-((3,5-dimethylpiperidin-1-yl)sulfonyl)benzamido)-1,3,4-oxadiazole-2-carboxylate] | inactive | – | – | – |
| CC1CC(C)CN(S(=O)(=O)c2ccc(-c3nnc(-c4cccs4)o3)cc2)C1 (stereo not shown) [Compound F6-4, 2-(4-((3,5-Dimethylpiperidin-1-yl)sulfonyl)phenyl)-5-(thiophen-2-yl)-1,3,4-oxadiazole] | not active | – | – | – |
| CC1CC(C)CN(S(=O)(=O)c2ccc(C(=O)Nc3nnc(-c4cccs4)[nH]3)cc2)C1 (stereo not shown) [Compound F6-6, 4-((3,5-Dimethylpiperidin-1-yl)sulfonyl)-N-(5-(thiophen-2-yl)-4H-1,2,4-triazol-3-yl)benzamide] | activity was lost | – | – | – |
| CC1CC(C)CN(S(=O)(=O)c2ccc(C(=O)Nc3nnc(-c4cccs4)s3)cc2)C1 (stereo not shown) [Compound F6-7, 4-((3,5-Dimethylpiperidin-1-yl)sulfonyl)-N-(5-(thiophen-2-yl)-1,3,4-thiadiazol-2-yl)benzamide] | activity was lost | – | – | – |
| O=C(Nc1nnc(-c2ccco2)o1)c1ccc(S(=O)(=O)N2CCOCC2)cc1 [Compound F9] | not active | – | – | – |
| CN(CC1CCCO1)S(=O)(=O)c1ccc(C(=O)Nc2nnc(-c3ccccc3)o2)cc1 (stereo not shown) [Compound G9] | only slightly inhibited growth | – | – | – |
| O=C(Nc1nnc(-c2cccs2)o1)c1ccc(S(=O)(=O)Cc2ccccc2)cc1 [HSGN-104, 4-(benzylsulfonyl)-N-(5-(thiophen-2-yl)-1,3,4-oxadiazol-2-yl)benzamide] | – | 32 (≈ 75.2 µM) | 64 (≈ 150 µM) | MIC (E. faecalis): 64 µg/mL (≈ 150 µM); MIC (VRE): > 128 µg/mL |
| C[C@@H]1C[C@H](C)CN(S(=O)(=O)c2ccc(C(=O)Nc3nnc(-c4cccc(Cl)c4)o3)cc2)C1 [HSGN-110, N-(5-(3-chlorophenyl)-1,3,4-oxadiazol-2-yl)-4-(((3S,5R)-3,5-dimethylpiperidin-1-yl)sulfonyl)benzamide] | – | 0.5 (≈ 1.05 µM) | 1 (≈ 2.11 µM) | MIC (E. faecalis): 1 µg/mL (≈ 2.11 µM); MIC (VRE): 2 µg/mL (≈ 4.21 µM) |
| C[C@@H]1C[C@H](C)CN(S(=O)(=O)c2ccc(C(=O)Nc3nnc(-c4cccc(F)c4)o3)cc2)C1 [HSGN-111, 4-(((3S,5R)-3,5-dimethylpiperidin-1-yl)sulfonyl)-N-(5-(3-fluorophenyl)-1,3,4-oxadiazol-2-yl)benzamide] | – | 0.5 (≈ 1.09 µM) | 2 (≈ 4.36 µM) | MIC (E. faecalis): 2 µg/mL (≈ 4.36 µM); MIC (VRE): 2 µg/mL (≈ 4.36 µM) |
| COc1cccc(-c2nnc(NC(=O)c3ccc(S(=O)(=O)N4C[C@H](C)C[C@H](C)C4)cc3)o2)c1 [HSGN-112, 4-(((3S,5R)-3,5-dimethylpiperidin-1-yl)sulfonyl)-N-(5-(3-methoxyphenyl)-1,3,4-oxadiazol-2-yl)benzamide] | – | 2 (≈ 4.25 µM) | 4 (≈ 8.5 µM) | MIC (E. faecalis): 8 µg/mL (≈ 17 µM); MIC (VRE): 4 µg/mL (≈ 8.5 µM) |
| C[C@@H]1C[C@H](C)CN(S(=O)(=O)c2ccc(C(=O)Nc3nnc(-c4cccc(C(F)(F)F)c4)o3)cc2)C1 [HSGN-122, 4-(((3S,5R)-3,5-dimethylpiperidin-1-yl)sulfonyl)-N-(5-(3-(trifluoromethyl)phenyl)-1,3,4-oxadiazol-2-yl)benzamide] | – | 1 (≈ 1.97 µM) | 2 (≈ 3.93 µM) | MIC (E. faecalis): 4 µg/mL (≈ 7.87 µM); MIC (VRE): 8 µg/mL (≈ 15.7 µM) |
| Cc1nc(C)c(-c2nnc(NC(=O)c3ccc(S(=O)(=O)N4C[C@H](C)C[C@H](C)C4)cc3)o2)s1 [HSGN-123, 4-(((3S,5R)-3,5-dimethylpiperidin-1-yl)sulfonyl)-N-(5-(2,4-dimethylthiazol-5-yl)-1,3,4-oxadiazol-2-yl)benzamide] | – | 8 (≈ 16.8 µM) | 16 (≈ 33.6 µM) | MIC (E. faecalis): 32 µg/mL (≈ 67.3 µM); MIC (VRE): 64 µg/mL (≈ 135 µM) |
| C[C@@H]1C[C@H](C)CN(S(=O)(=O)c2ccc(C(=O)Nc3nnc(-c4cccc(C(=N)NO)c4)o3)cc2)C1 [HSGN-151, 4-(((3S,5R)-3,5-dimethylpiperidin-1-yl)sulfonyl)-N-(5-(3-(N-hydroxycarbamimidoyl)phenyl)-1,3,4-oxadiazol-2-yl)benzamide] | – | > 64 | > 64 | – |
| C[C@@H]1C[C@H](C)CN(S(=O)(=O)c2ccc(C(=O)Nc3ccc4[nH]c(=O)oc4c3)cc2)C1 [HSGN-158, 4-(((3S,5R)-3,5-dimethylpiperidin-1-yl)sulfonyl)-N-(2-oxo-2,3-dihydrobenzo[d]oxazol-6-yl)benzamide] | – | > 64 | > 64 | – |
| O=C1CN(S(=O)(=O)c2ccc(C(=O)Nc3nnc(-c4ccc(C(F)(F)F)cc4)o3)cc2)CCN1 [HSGN-162, 4-((3-oxopiperazin-1-yl)sulfonyl)-N-(5-(4-(trifluoromethyl)phenyl)-1,3,4-oxadiazol-2-yl)benzamide] | – | > 64 | > 64 | – |
| C[C@@H]1C[C@H](C)CN(S(=O)(=O)c2cccc(C(=O)Nc3nnc(-c4ccc(C(F)(F)F)cc4)o3)c2)C1 [HSGN-176, 3-(((3S,5R)-3,5-dimethylpiperidin-1-yl)sulfonyl)-N-(5-(4-(trifluoromethyl)phenyl)-1,3,4-oxadiazol-2-yl)benzamide] | – | 8 (≈ 15.7 µM) | 8 (≈ 15.7 µM) | – |
| Cc1ccc(C(=O)Nc2nnc(-c3ccc(C(F)(F)F)cc3)o2)cc1S(=O)(=O)N1C[C@H](C)C[C@H](C)C1 [HSGN-177, 3-(((3S,5R)-3,5-dimethylpiperidin-1-yl)sulfonyl)-4-methyl-N-(5-(4-(trifluoromethyl)phenyl)-1,3,4-oxadiazol-2-yl)benzamide] | – | 1 (≈ 1.91 µM) | 2 (≈ 3.83 µM) | – |
| C[C@@H]1C[C@H](C)CN(S(=O)(=O)c2ccc(C(=O)Nc3nnc(-c4ccccc4)o3)cc2)C1 [HSGN-180, 4-(((3S,5R)-3,5-dimethylpiperidin-1-yl)sulfonyl)-N-(5-phenyl-1,3,4-oxadiazol-2-yl)benzamide] | – | 4 (≈ 9.08 µM) | 4 (≈ 9.08 µM) | – |
| Cc1ccc(-c2nnc(NC(=O)c3ccc(S(=O)(=O)N4C[C@H](C)C[C@H](C)C4)cc3)o2)cc1 [HSGN-181, 4-(((3S,5R)-3,5-dimethylpiperidin-1-yl)sulfonyl)-N-(5-(p-tolyl)-1,3,4-oxadiazol-2-yl)benzamide] | – | 8 (≈ 17.6 µM) | 16 (≈ 35.2 µM) | – |
| C[C@@H]1C[C@H](C)CN(S(=O)(=O)c2ccc(C(=O)Nc3nnc(-c4ccc(F)cc4F)o3)cc2)C1 [HSGN-182, N-(5-(2,4-difluorophenyl)-1,3,4-oxadiazol-2-yl)-4-(((3S,5R)-3,5-dimethylpiperidin-1-yl)sulfonyl)benzamide] | – | 8 (≈ 16.8 µM) | 8 (≈ 16.8 µM) | – |
| Cc1cc(C(=O)Nc2nnc(-c3ccc(C(F)(F)F)cc3)o2)ccc1S(=O)(=O)N1C[C@H](C)C[C@H](C)C1 [HSGN-189, 4-(((3S,5R)-3,5-dimethylpiperidin-1-yl)sulfonyl)-3-methyl-N-(5-(4-(trifluoromethyl)phenyl)-1,3,4-oxadiazol-2-yl)benzamide] | – | 0.25 (≈ 0.478 µM) | 0.25 (≈ 0.478 µM) | – |
| CCCCOc1ccc(-c2nnc(NC(=O)c3ccc(S(=O)(=O)N4C[C@H](C)C[C@H](C)C4)cc3)o2)cc1 [HSGN-191, N-(5-(4-butoxyphenyl)-1,3,4-oxadiazol-2-yl)-4-(((3S,5R)-3,5-dimethylpiperidin-1-yl)sulfonyl)benzamide] | – | 16 (≈ 31.2 µM) | 16 (≈ 31.2 µM) | – |
| Cc1cc(C(=O)Nc2nnc(-c3ccc(C(F)(F)F)cc3)o2)ccc1S(=O)(=O)N1CCC(C)CC1 [HSGN-195, 3-methyl-4-((4-methylpiperidin-1-yl)sulfonyl)-N-(5-(4-(trifluoromethyl)phenyl)-1,3,4-oxadiazol-2-yl)benzamide] | – | 0.5 (≈ 0.983 µM) | 1 (≈ 1.97 µM) | – |
| COc1cccc(OC)c1C(=O)N[C@@H]1C(=O)N2[C@@H]1SC(C)(C)[C@@H]2C(=O)O [Methicillin, reference compound] | – | > 128 | – | MIC (S. aureus ATCC 25923): 2 µg/mL (≈ 5.26 µM) |
